Measured values: PMC5823406, “Vehicle development, pharmacokinetics and toxicity of the anti-invasive agent 4-fluoro-3’,4’,5’-trimethoxychalcone in rodents” (PLoS ONE, 2018)

Experiments:
[1] = Stability and homogeneity of C16 dispersion in Medigel Sucralose; format: physicochemical; details: for Peak ratio C16/IS relative to first time point, Average of three wavelengths: Medigel Sucralose 235.29 mg/cup, 1.64% DMSO
Experimental: A pre-weighed amount of C16 was dissolved in 1 mL of DMSO and the resulting solution was delivered into a cup of Medigel sucralose (pre-warmed to room temperature) with a syringe through the foil lid. In order to facilitate even distribution of C16 in the gel, the injection was spread over several points. The resulting suspension of C16 in gel was dispersed evenly by vigorous shaking for at least two minutes. Visual control confirmed a uniform and finely dispersed suspension of C16 particles in the gel. The final DMSO concentration in the gel was 1.64%. […]
A.B. Vehicle development for repeated high-dose PO administration of C16 b. Stability test of the 300 mg/kg preparation of C16 in Medigel Sucralose at room temperature The 300 mg/kg preparation refers to a cup containing 235.29 mg of C16 and 1.64% DMSO (see Materials and Methods section of main text). Sampling took place for a solvent control cup (containing only 1.64% DMSO) , and for the medicated cup at 0.17, 5.33, 55, 102 and 144 h post preparation. Samples of 1 mL were withdrawn with syringe and needle through the lid, and mixed with 1 mL of acetonitrile. The supernatant of the resulting suspension was filtered through a Whatman 0.2 µm PTFE syringe filter and analyzed using HPLC -MS.
Instrument: Agilent 1200 series HPLC system
Column: Ascentis Express C18 column 2.7 µm (30 x 4.6 mm)
Mobile phase A: Water (H2O) + 5 mM NH4OAc
Mobile phase B: Acetonitrile
Column Temperature: 40 °C
UV Detector: Diode array detector, 190 – 400 nm
Table B. Stability of C16 in Medigel Sucralose: g radient program .
Time (min) Flow rate (mL/min) A (%) B (%)
Mass spectrometer conditions
Instrument: Agilent 1100 series VL mass spectrometer
Ionization mode: API-ES, positive ions
Main derivative: Z-isomer of C16
Retention time : 3.34 min
Table C. Stability of C16 in Medigel Sucralose: evolution of peak areas of IS, C16 and its Z-isomer in time for three wavelengths. […]
time IS peak C16 Z- Ratio IS peak C16 Z- Ratio IS peak C16 Z- Ratio
(h) area peak isomer (C16/IS area peak isomer (C16/IS area peak isomer (C16/IS (mAU.s) area peak peak (mAU.s) area peak peak (mAU.s) area peak peak
(mAU.s) area area) (mAU.s) area area) (mAU.s) area area)
Peak ratios for stability assessment
Peak ratios for C16/IS, relative to the first time point, were calculated for three wavelengths (Table D).
Table D. Stability of C16 in Medigel Sucralose: peak ratios for C16/IS, relative to first time point, for three wavelengths.
Peak ratios for homogeneity assessment of a 300 mg/kg C16-doped gel
The 300 mg/kg preparation refers to a cup containing 235.29 mg of C16 and 1.64% DMSO. After preparation (see ‘Materials and Methods’ section of main text), the gel was sampled through the lid at five sites (Fig A).
Fig A. Sampling of C16-doped Medigel Sucralose.
The samples were analyzed according to the method described above for the stability test of C16 in Medigel Sucralose […]
Table E. Peak areas of IS, C16 and its Z-isomer at five sampling sites for three wavelengths. […]
sites IS peak C16 peak Ratio IS peak C16 peak Ratio IS peak C16 peak Ratio area area (C16/IS area area (C16/IS area area (C16/IS
(mAU.s) (mAU.s) peak area) (mAU.s) (mAU.s) peak area) (mAU.s) (mAU.s) peak area) […]
Individual plasma concentrations for C16 are shown in Table F and Table G. All data are expressed as ng/mL of the free drug. Samples that were below the limit of quantitation were not used in the calculation of averages. Plasma concentrations versus time data are plotted in Fig B and Fig C. Measured dosing concentrations were used in all pharmacokinetic calculations.
(1 picture or pasted object on this page, not shown here)

CYP 2D6 = CYP 2D6 (Homo sapiens, UniProt P10635); assay: CYP inhibition 2D6 (MFC substrate); format: in vitro ADME; details: 10 μM
Excerpt: (§1) Table 3 In vitro physicochemical, stability and metabolism data. | column: Value

CYP 3A4 = CYP 3A4 (Homo sapiens, UniProt P08684); assay: CYP inhibition 3A4 (BFC substrate); format: in vitro ADME; details: 10 μM
Excerpt: as §1

[2] = Metabolite profiling in whole blood; format: in vitro ADME; details: rat whole blood
Experimental: C. Stability and metabolism
For details on ADME experiments not included underneath , please consult ref. [1].
C.A. Whole blood stability
Column: Kinetex XB-C18 column, 2.6 µm (150 x2.1 mm)
Mobile phase A: H2O + 0.1% v/v Formic Acid
Mobile phase B: MeCN + 0.1% v/v Formic Acid
Autosampler syringe volume: 100 µL
Weak wash: MeOH:H2O 1:9 v/v
Strong wash: MeOH:H2O 95:5 v/v
Table K. Gradient program.
Mass spectrometric conditions
Model: AB Sciex API5500 QTrap
Mode: Multiple ion monitoring (MIM)
Table L. MIM (parent to parent transitions).
The areas and percentages for the parent and metabolites have been calculated using MIM data where parent to parent transitions have been used, and assume that each metabolite has the same point of ionisation and the sensitivity of the metabolite has not been affected by the biotransformation.

Chain of CYP 2D6 (P10635 whole entry): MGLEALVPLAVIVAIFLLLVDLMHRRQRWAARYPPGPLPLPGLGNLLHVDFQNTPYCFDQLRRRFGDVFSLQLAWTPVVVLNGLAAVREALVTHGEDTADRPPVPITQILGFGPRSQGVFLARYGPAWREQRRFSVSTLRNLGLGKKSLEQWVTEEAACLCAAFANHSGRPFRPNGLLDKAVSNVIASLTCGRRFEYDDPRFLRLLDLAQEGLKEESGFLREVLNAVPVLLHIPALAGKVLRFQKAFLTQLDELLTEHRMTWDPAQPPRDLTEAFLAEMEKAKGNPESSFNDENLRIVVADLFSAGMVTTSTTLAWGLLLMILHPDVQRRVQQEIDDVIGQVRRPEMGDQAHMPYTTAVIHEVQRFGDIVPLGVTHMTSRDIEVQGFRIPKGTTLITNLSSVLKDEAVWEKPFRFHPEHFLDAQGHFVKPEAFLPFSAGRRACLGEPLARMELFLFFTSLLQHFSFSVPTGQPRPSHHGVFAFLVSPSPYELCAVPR
Chain of CYP 3A4 (P08684 whole entry): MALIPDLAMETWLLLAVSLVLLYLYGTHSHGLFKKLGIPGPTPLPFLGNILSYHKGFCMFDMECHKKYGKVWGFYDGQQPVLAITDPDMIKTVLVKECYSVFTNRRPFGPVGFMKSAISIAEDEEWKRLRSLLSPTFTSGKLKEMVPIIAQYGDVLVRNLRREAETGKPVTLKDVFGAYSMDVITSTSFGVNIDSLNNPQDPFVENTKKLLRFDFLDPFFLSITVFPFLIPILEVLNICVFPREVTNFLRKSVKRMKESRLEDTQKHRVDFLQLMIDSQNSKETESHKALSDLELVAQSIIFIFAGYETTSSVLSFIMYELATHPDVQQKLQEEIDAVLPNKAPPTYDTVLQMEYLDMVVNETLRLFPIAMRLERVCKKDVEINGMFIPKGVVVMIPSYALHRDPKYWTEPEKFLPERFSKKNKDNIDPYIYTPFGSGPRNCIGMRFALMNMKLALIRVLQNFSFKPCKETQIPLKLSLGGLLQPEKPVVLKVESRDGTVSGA

SMILES: COc1cc(C(=O)/C=C/c2ccc(F)cc2)cc(OC)c1OC [C16, 4-fluoro-3’,4’,5’-trimethoxychalcone]
- Peak ratio C16/IS relative to first time point, Average of three wavelengths ([1]; room temperature, 5.3 h): 90.3
- Peak ratio C16/IS relative to first time point, Average of three wavelengths ([1]; room temperature, 55 h): 95.0
- Peak ratio C16/IS relative to first time point, Average of three wavelengths ([1]; room temperature, 102 h): 96.9
- Peak ratio C16/IS relative to first time point, Average of three wavelengths ([1]; room temperature, 144 h): 85.8
- Distribution of compound in Medigel Sucralose ([1]; five sampling sites): uniformly distributed
- Stability of suspension in Medigel Sucralose ([1]; room temperature, over 144 h): stable
- CYP inhibition 2D6 (MFC substrate) (CYP 2D6): -19 % inhibition of control
- CYP inhibition 3A4 (BFC substrate) (CYP 3A4): 27 % inhibition of control
- Area in sample (%) ([2]; 0 min control): 62.4%
- Area in sample (%) ([2]; 15 min sample): 52.2%
